From US20220235073A1, “ARTEMISININ-DERIVATIVE N-HETEROCYCLIC CARBENE GOLD(I) HYBRID COMPLEXES” (CENTRE NATIONAL DE LA RECHERCHE SCIENTIFIQUE, priority 2019, published 2022)
Where two headings read alike, the source gives them in different places.

Tests used:
[1] = tested on: NF-κB transcription factor induced by TNFalpha; test: NF-kB transcriptional activity, NF-kB Reporter (Luc)-A549 stable cell line; type: cell-based, human; conditions: NF-kB Reporter A549 cells, 1 ng/ml TNFα, 7 hours, read-out: IC50, inhibition of NF-κB transcription factor induced by TNFalpha
Procedure: The NF-kB Reporter (Luc)—A549 Stable Cell Line was used to quantify the inhibitory effects of the indicated doses of the molecules of the invention on transcriptional activity of NF-kB activated by 1 ng/ml TNFα (7 hours of treatment).
Luminescence was read using a luminometer and readings were normalized to wells that only contain media to obtain the Relative Luminescence Units (RLUs).
9. NF-kB Transcriptional Activity

[2] = tested on: MCF-7 human breast adenocarcinoma cells; test: Cell viability MTT assay, MCF-7; type: cell-based; conditions: for GI50: 72 h, MTT assay; for IC50: Table 3, tumor cell model
Procedure: PC-3 human prostate cancer cells, and LAMA chronic myeloid leukemia were cultured in RPMI 1640 containing 10% fetal bovine serum and 1% antibiotics (100 U/mL penicillin and 100 μg/mL streotimycin) at 37° C. in 5% CO2 humidified incubators. HL60 […] were cultured in RPMI 1640 containing 15% fetal bovine serum and 1% antibiotics (100 U/mL penicillin and 100 μg/mL streotimycin) at 37° C. in 5% CO2 humidified incubators. HepG-2 human liver cancer cells were cultured in EMEM containing 10% of FBS, 1% of nonessential amino acids, 1 mM of Na-pyruvate, 1% of PenStrep antibiotics and 600 μg/mL of Geneticin. A549 human lung carcinoma cells, T24 human bladder carcinoma cells, MCF-7 human breast adenocarcinoma cells, U-2OS human osteosarcoma and NIH3T3 murine fibroblast cells were cultured in DMEM medium containing 10% fetal bovine serum and 1% antibiotics at 37° C. in 5% CO2 humidified incubators. MC3T3 mouse osteoblast cells were cultured in MEM medium containing 10% fetal bovine serum and 1% antibiotics at 37° C. in 5% CO2 humidified incubators. RWPE-1 human prostate normal cells were cultured in K-SFM medium containing 0.05 mg/ml bovine pituitary extract (BPE) and 5 ng/ml epidermal growth factor (EGF) at 37° C. in 5% CO2 humidified incubators. The MTT reagent (3-(4,5-dimethylthiazol-2-yl)-2,5-diphenyltetrazolium bromide) was used to determine cell death as originally described by Mosmaneland modified by Cuvillier et al.^[6] Briefly, cells were seeded 5,000 to 10,000 cells/well in 24-well plates depending on the cell type and allowed to attach overnight. All of the complexes were dissolved in DMSO. The concentration of the complexes was calculated according to the elemental composition of the complexes determined by the elemental analyses. Media in the presence of the tested complexes were added and serially diluted to various concentrations (from 5 μM to 0.01 μM). Next to these concentrations, for DHA 50, 20 and 10 μM and for the cationic bisNHC gold(I) complex 3 0.001 μM have been used. […] After 72 h of treatment, cells were incubated at 37° C. and 5% CO2 with 25 μL MTT solution (5 mg/mL; Sigma-Aldrich) in 24-well plates for approximately 3 to 4 h. After solubilization with 500 μL of lysis buffer (DMSO), formazan was quantified by spectrophotometry with a microplate reader at 570 nm absorbance. The GI50 values corresponding to the concentration that caused 50% inhibition of cell proliferation were calculated from dose-response curves obtained by nonlinear regression analysis (Prism 8, Graphpad Software). All the results were calculated from data obtained in three independent experiments.

Nrf2 = test: NRF2 transcriptional activity, ARE Reporter Hep G2 cell line; type: cell-based, human; conditions: ARE Reporter Hep G2 cells, 16 hours, any dose
Procedure: The ARE Reporter Hep G2 cell line containing a firefly luciferase gene under the control of ARE stably integrated into Hep G2 cells was used to quantify NRF2 transcriptional activity after 16 hours of treatment with the indicated doses of the different complexes. The results are shown as fold induction of ARE luciferase reporter expression. Dashed line indicates a fold induction of 1 (values >1 mean activation and values <1 mean inhibition).
ARE-reporter-HepG-2 cells were harvested from culture in Growth Medium 1K and they were seeded at a concentration of 40,000 cells/well into white clear-bottom 96-well microplate in 45 μL of Growth Medium 1K without Geneticin. Cells were allowed to attach overnight and then treated with different concentrations of complex 2a (from 0.01 μM to 20 μM), auranofin (from 0.01 μM to 20 μM) or DHA (from 0.01 μM to 3, 5, 10, 20 and 50 μM), and complex (from 0.01 μM to 20 μM). After incubation at 37° C. and 5% CO2 for 16 hours, ONE-Step luciferase assay reagent (100 μL) was added and rock at room temperature for over 15 minutes. Then the luminescence of each well was determined by CLARIOstar microplate reader to quantify induction of ARE. Three independent experiments were performed as biological triplicates. The results are in FIG. 4.

IC50 ([1]; Homo sapiens) [µM]	GI50 ([2]; Homo sapiens, MCF7) [µM]	IC50 ([2]; Homo sapiens, MCF7) [µM]	SMILES	IC50 [1] [µM]	GI50 [2] [µM]	IC50 [2] [µM]	Effect on activity of Nrf2 (Nrf2)
			CC(=O)OC[C@H]1O[C@@H]([S-])[C@H](OC(C)=O)[C@@H](OC(C)=O)[C@@H]1OC(C)=O.CCP(CC)CC.[Au+] [Auranofin]	2.96	1.39	1.39	activate
8.91	9.67	9.67	C[C@H]1[C@@H](O)O[C@@H]2O[C@]3(C)CC[C@H]4[C@H](C)CC[C@@H]1[C@@]24OO3 [DHA, dihydroartemisinin]				
